According to patent publication US20240368135A1 (VERTEX PHARMACEUTICALS INCORPORATED, priority 2021, published 2024):
pIC50: −log10 of the molar value. Read-outs that look alike come from different tables or passages of the source.

Target: human NaV 1.8 (Homo sapiens, UniProt Q9Y5Y9)
Test: E-VIPR assay detecting and measuring NaV inhibition properties
Type: cell-based
Details: HEK cells expressing truncated human NaV 1.8
Outline: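 Membrane potential was followed by coumarin/oxonol FRET during electrical field stimulation of matrigel-seeded HEK cells carrying truncated human NaV1.8 plus KIR2.1. Dosing used 11 points, 3-fold steps, top 300 nM final, 0.625% DMSO, with or without 25% human serum.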

[1] = no human serum, read-out: IC50 in the E-VIPR Assay
[2] = in the presence of human serum (compound numbers followed by *), read-out: IC50 in the E-VIPR Assay, performed in the presence of human serum

Chain of human NaV 1.8 (Q9Y5Y9 126-399 limits assumed): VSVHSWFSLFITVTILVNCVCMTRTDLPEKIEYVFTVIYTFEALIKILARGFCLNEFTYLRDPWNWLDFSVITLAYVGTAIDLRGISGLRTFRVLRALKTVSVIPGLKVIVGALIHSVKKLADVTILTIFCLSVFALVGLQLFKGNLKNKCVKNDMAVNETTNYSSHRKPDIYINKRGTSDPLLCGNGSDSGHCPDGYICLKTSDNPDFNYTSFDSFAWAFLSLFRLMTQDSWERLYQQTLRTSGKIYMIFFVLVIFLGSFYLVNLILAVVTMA
Chain of human NaV 1.8 (Q9Y5Y9 660-890 limits assumed): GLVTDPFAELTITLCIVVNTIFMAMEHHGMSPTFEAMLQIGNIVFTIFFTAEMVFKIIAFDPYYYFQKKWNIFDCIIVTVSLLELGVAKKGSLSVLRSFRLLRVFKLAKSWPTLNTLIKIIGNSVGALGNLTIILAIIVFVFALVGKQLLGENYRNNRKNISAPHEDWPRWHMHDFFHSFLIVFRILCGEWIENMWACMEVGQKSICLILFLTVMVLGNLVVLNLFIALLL
Chain of human NaV 1.8 (Q9Y5Y9 1148-1722 limits assumed): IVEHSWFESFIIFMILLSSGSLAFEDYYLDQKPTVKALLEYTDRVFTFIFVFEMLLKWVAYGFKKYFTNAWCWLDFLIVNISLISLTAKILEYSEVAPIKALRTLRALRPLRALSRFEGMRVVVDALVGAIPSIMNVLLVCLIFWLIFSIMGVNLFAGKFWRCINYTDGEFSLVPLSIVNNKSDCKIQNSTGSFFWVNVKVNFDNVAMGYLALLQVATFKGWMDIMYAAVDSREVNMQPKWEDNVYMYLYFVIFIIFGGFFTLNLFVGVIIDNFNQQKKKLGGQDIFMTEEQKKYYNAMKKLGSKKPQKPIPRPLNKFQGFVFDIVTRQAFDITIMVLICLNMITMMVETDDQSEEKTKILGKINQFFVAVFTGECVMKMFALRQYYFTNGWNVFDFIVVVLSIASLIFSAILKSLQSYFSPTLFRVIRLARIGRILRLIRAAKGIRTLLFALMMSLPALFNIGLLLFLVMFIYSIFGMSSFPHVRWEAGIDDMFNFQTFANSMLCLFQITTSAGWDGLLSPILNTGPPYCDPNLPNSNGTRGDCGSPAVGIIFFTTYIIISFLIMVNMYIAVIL

SMILES | pIC50 [1] | pIC50 [2]
COc1c([C@H]2[C@H](C(=O)Nc3ccc(-c4nc(C)no4)nc3)O[C@@](C)(C(F)(F)F)[C@H]2C)ccc(F)c1F [Compound 393, (2R,3S,4S,5R)-3-(3,4-difluoro-2-methoxyphenyl)-4,5-dimethyl-N-(6-(3-methyl-1,2,4-oxadiazol-5-yl)pyridin-3-yl)-5-(trifluoromethyl)-tetrahydrofuran-2-carboxamide] | 6.00 to 7.00 | 
C[C@H]1[C@@H](c2ccc(F)c(F)c2OCCO)[C@H](C(=O)Nc2ccc(C(N)=O)nc2)O[C@@]1(C)C(F)(F)F [Compound 615, 5-((2R,3S,4S,5R)-3-(3,4-difluoro-2-(2-hydroxyethoxy)phenyl)-4,5-dimethyl-5-(trifluoromethyl)tetrahydrofuran-2-carboxamido)picolinamide] | 7.00 to 8.00 | 
C=Cc1c([C@H]2[C@H](C(=O)Nc3cn(C(F)F)nc3C)O[C@@](C)(C(F)(F)F)[C@H]2C)ccc(F)c1F [Compound 676, (2R,3S,4S,5R)-3-(3,4-difluoro-2-vinylphenyl)-N-(1-(difluoromethyl)-3-methyl-1H-pyrazol-4-yl)-4,5-dimethyl-5-(trifluoromethyl)tetrahydrofuran-2-carboxamide] | > 8.00 | 
COc1c(C2C(C(=O)Nc3ccn4nnnc4c3)OC(C)(C(F)(F)F)C2C)ccc(F)c1C (single isomer, unassigned) [Compound 134, 3-(4-fluoro-2-methoxy-3-methyl-phenyl)-4,5-dimethyl-N-(tetrazolo[1,5-a]pyridin-7-yl)-5-(trifluoromethyl)tetrahydrofuran-2-carboxamide] | > 8.00 | 
C[C@H]1[C@@H](c2ccc(F)c(F)c2OC(F)F)[C@H](C(=O)Nc2cncc(C#N)c2)O[C@@]1(C)C(F)(F)F (single isomer, unassigned) [Compound 70] |  | 6.00 to 7.00
COc1c([C@H]2[C@H](C(=O)Nc3ccc(N4CCN(C)CC4=O)nc3)O[C@@](C)(C(F)(F)F)[C@H]2C)ccc(F)c1F [Compound 391, (2R,3S,4S,5R)-3-(3,4-difluoro-2-methoxyphenyl)-4,5-dimethyl-N-(6-(4-methyl-2-oxopiperazin-1-yl)pyridin-3-yl)-5-(trifluoromethyl)-tetrahydrofuran-2-carboxamide] | 6.00 to 7.00 | 
COc1c([C@H]2[C@H](C(=O)Nc3ccnc(OC4CCN(C)C4=O)c3)O[C@@](C)(C(F)(F)F)[C@H]2C)ccc(F)c1F (single isomer, unassigned) [Compound 198, rel-(2R*,3S*,4S*,5R*)-3-(3,4-difluoro-2-methoxyphenyl)-4,5-dimethyl-N-(2-((1-methyl-2-oxopyrrolidin-3-yl)oxy)pyridin-4-yl)-5-(trifluoromethyl)tetrahydrofuran-2-carboxamide] | 7.00 to 8.00 | 
C=C(CO)COc1c([C@H]2[C@H](C(=O)Nc3cn(C(F)F)nc3C)O[C@@](C)(C(F)(F)F)[C@H]2C)ccc(F)c1F [Compound 601, (2R,3S,4S,5R)-3-[3,4-difluoro-2-[2-(hydroxymethyl)allyloxy]phenyl]-N-[1-(difluoromethyl)-3-methyl-pyrazol-4-yl]-4,5-dimethyl-5-(trifluoromethyl)tetrahydrofuran-2-carboxamide] | > 8.00 | 
COc1c(C2C(C(=O)Nc3ccnc(C(=O)O)c3)OC(C)(C(F)(F)F)C2C)ccc(F)c1C(F)F (single isomer, unassigned) [Compound 174] | > 8.00 | 
COc1c([C@H]2[C@H](C(=O)Nc3cnnc(C(C)(C)O)c3)O[C@@](C)(C(F)(F)F)[C@H]2C)ccc(F)c1F [Compound 219, (2R,3S,4S,5R)-3-(3,4-difluoro-2-methoxy-phenyl)-N-[6-(1-hydroxy-1-methyl-ethyl)pyridazin-4-yl]-4,5-dimethyl-5-(trifluoromethyl)tetrahydrofuran-2-carboxamide] | > 8.00 | 
COc1c([C@@H]2[C@@H](C(=O)Nc3ccnc(C(O)CO)c3)O[C@](C)(C(F)(F)F)[C@@H]2C)ccc(F)c1C (single isomer, unassigned) [Compound 136] |  | ≤ 6.00
COc1c([C@H]2[C@H](C(=O)Nc3ccnc(N4C[C@H]5C[C@@H](C4=O)N5C)c3)O[C@@](C)(C(F)(F)F)[C@H]2C)ccc(F)c1F (single isomer, unassigned) [Compound 509, rel-(2R*,3S*,4S*,5R*)-3-(3,4-difluoro-2-methoxyphenyl)-4,5-dimethyl-N-(2-((1S,5R)-6-methyl-2-oxo-3,6-diazabicyclo[3.1.1]heptan-3-yl)pyridin-4-yl)-5-(trifluoromethyl)tetrahydrofuran-2-carboxamide] | 7.00 to 8.00 | 
COc1c([C@H]2[C@H](C(=O)Nc3cc(C(C)(O)CF)ncn3)O[C@@](C)(C(F)(F)F)[C@H]2C)ccc(F)c1F (single isomer, unassigned) [Compound 228, rel-(2R*,3S*,4S*,5R*)-3-(3,4-difluoro-2-methoxyphenyl)-N-(6-(1-fluoro-2-hydroxypropan-2-yl)pyrimidin-4-yl)-4,5-dimethyl-5-(trifluoromethyl)tetrahydrofuran-2-carboxamide] | 7.00 to 8.00 | 
COc1c(C2C(C(=O)Nc3ccnc(C(O)C(C)O)c3)OC(C)(C(F)(F)F)C2C)ccc(F)c1C (single isomer, unassigned) [Compound 148] |  | > 8.00
COc1c(C2C(C(=O)Nc3cnnc(CO)c3)OC(C)(C(F)(F)F)C2C)ccc(F)c1F (stereo not shown) [Compound 18, 3-(3,4-difluoro-2-methoxy-phenyl)-N-[6-(hydroxymethyl)pyridazin-4-yl]-4,5-dimethyl-5-(trifluoromethyl)tetrahydrofuran-2-carboxamide] | > 8.00 | 
C=C(CO)COc1c([C@H]2[C@H](C(=O)Nc3ccc4cnnn4c3)O[C@@](C)(C(F)(F)F)[C@H]2C)ccc(F)c1F [Compound 622, (2R,3S,4S,5R)-3-[3,4-difluoro-2-[2-(hydroxymethyl)allyloxy]phenyl]-4,5-dimethyl-N-(triazolo[1,5-a]pyridin-6-yl)-5-(trifluoromethyl)tetrahydrofuran-2-carboxamide] | > 8.00 | 
COCC(c1cc(NC(=O)[C@@H]2O[C@@](C)(C(F)(F)F)[C@@H](C)[C@H]2c2ccc(F)c(F)c2OC)ccn1)N(C)C (single isomer, unassigned) [Compound 424, rel-(2R*,3S*,4S*,5R*)-3-(3,4-difluoro-2-methoxyphenyl)-N-(2-(1-(dimethylamino)-2-methoxyethyl)pyridin-4-yl)-4,5-dimethyl-5-(trifluoromethyl)-tetrahydrofuran-2-carboxamide] | > 8.00 | 
COc1c([C@H]2[C@H](C(=O)Nc3cn(C[C@H](O)CO)nc3C)O[C@@](C)(C(F)(F)F)[C@H]2C)ccc(F)c1F [Compound 332, (2R,3S,4S,5R)-3-(3,4-difluoro-2-methoxy-phenyl)-N-[1-[(2S)-2,3-dihydroxypropyl]-3-methyl-pyrazol-4-yl]-4,5-dimethyl-5-(trifluoromethyl)tetrahydrofuran-2-carboxamide] | > 8.00 | 
COCCn1ccc(NC(=O)[C@@H]2O[C@@](C)(C(F)(F)F)[C@@H](C)[C@H]2c2ccc(F)c(F)c2OCCO)n1 [Compound 552, (2R,3S,4S,5R)-3-(3,4-difluoro-2-(2-hydroxyethoxy)phenyl)-N-(1-(2-methoxyethyl)-1H-pyrazol-3-yl)-4,5-dimethyl-5-(trifluoromethyl)tetrahydrofuran-2-carboxamide] | ≤ 6.00 | 
Cc1nocc1NC(=O)[C@@H]1O[C@@](C)(C(F)(F)F)[C@@H](C)[C@H]1c1ccc(F)c(F)c1OCCN1C[C@H]2COC[C@H]2C1 [Compound 634, (2R,3S,4S,5R)-3-(3,4-difluoro-2-(2-((3aR,6aS)-tetrahydro-1H-furo[3,4-c]pyrrol-5(3H)-yl)ethoxy)phenyl)-4,5-dimethyl-N-(3-methylisoxazol-4-yl)-5-(trifluoromethyl)tetrahydrofuran-2-carboxamide] | 7.00 to 8.00 | 
COc1c([C@H]2[C@H](C(=O)NCC3(C)CCOCC3)O[C@@](C)(C(F)(F)F)[C@H]2C)ccc(F)c1F [Compound 300, (2R,3S,4S,5R)-3-(3,4-difluoro-2-methoxyphenyl)-4,5-dimethyl-N-((4-methyltetrahydro-2H-pyran-4-yl)methyl)-5-(trifluoromethyl)tetrahydrofuran-2-carboxamide] | ≤ 6.00 | 
COc1nc(C(F)F)ccc1[C@H]1[C@H](C(=O)Nc2ccc(C(N)=O)nc2)O[C@@](C)(C(F)(F)F)[C@H]1C (stereo in doubt) [Compound 734, rel-5-((2R,3S,4S,5R)-3-(6-(difluoromethyl)-2-methoxypyridin-3-yl)-4,5-dimethyl-5-(trifluoromethyl)tetrahydrofuran-2-carboxamido)picolinamide] | 6.00 to 7.00 | 
COc1c([C@@H]2C[C@](C)(C(F)(F)F)O[C@H]2C(=O)Nc2ccnc([C@H](O)CO)c2)ccc(F)c1C (single isomer, unassigned) [Compound 704] | 7.00 to 8.00 | 
COCC(c1ccc(NC(=O)[C@@H]2O[C@@](C)(C(F)(F)F)[C@@H](C)[C@H]2c2ccc(F)c(F)c2OC)cn1)N1CCC1 (single isomer, unassigned) [Compound 407, rel-(2R*,3S*,4S*,5R*)-N-(6-(1-(azetidin-1-yl)-2-methoxyethyl)-pyridin-3-yl)-3-(3,4-difluoro-2-methoxyphenyl)-4,5-dimethyl-5-(trifluoromethyl)-tetrahydrofuran-2-carboxamide] | ≤ 6.00 | 
COCC(O)c1cc(NC(=O)[C@@H]2O[C@@](C)(C(F)(F)F)[C@@H](C)[C@H]2c2ccc(F)c(F)c2OCCN2CC(F)C2)ccn1 (single isomer, unassigned) [Compound 608, rel-(2R*,3S*,4S*,5R*)-3-(3,4-difluoro-2-(2-(3-fluoroazetidin-1-yl)ethoxy)phenyl)-N-(2-(1-hydroxy-2-methoxyethyl)pyridin-4-yl)-4,5-dimethyl-5-(trifluoromethyl)tetrahydrofuran-2-carboxamide] | 7.00 to 8.00 | 
